Experiment: Cytotoxicity assay (MTT)
Type: cell-based, human
Settings: for IC50: 5 days
Protocol: Compounds 1−5 were dissolved as described in the previous section. The cytotoxicity assay was initially performed against the cell lines L929 (mouse fibroblasts), as well as KB 3.1 (human papillomavirus-related endocervical adenocarcinoma), as described previously. A detailed protocol, as well as sources of the cell lines, is given in the Supporting Information.
After incubating the cell lines with a serial dilution of the test compounds (final range: 37 to 0.6 × 10^−3 µg/mL) for five days, the cells were dyed using 3-(4,5-dimethyl-2-thiazolyl)-2,5-diphenyl-2H-tetrazolium bromide (MTT), which is only converted to its purple formazan derivative by living cells. Then, the intensity of the purple derivative in relation to cells without additive (set to 100% viability) for each concentration of a test compound was quantified. For this, the absorption at 595 nm was measured using a microplate reader to calculate the percentage of cell viability. From this, the half-maximum inhibitory concentration (IC50, in µM) was calculated.
If an inhibition of cell viability with an IC50 < 50 µM was observed, further cell lines were subjected to the test compounds: PC-3 (human prostate adenocarcinoma), SK-OV-3 (human ovary adenocarcinoma), MCF-7 (human breast adenocarcinoma), A431 (human squamous carcinoma) and A549 (human lung carcinoma).
Protocol: Cytotoxicity Assay
The ass ay w as co nducted i n 9 6-well flat-bottom mi crotiter plates using the parameters summarised i n Tabl e S 2 and as described in [S2].
Cell lines L929 and KB 3.1 were incubated at 37 °C under 10 % CO2 in Gibco™ DMEM medium (Thermo Fisher Scientific, Waltham, MA, USA) supplemented with 10 % FBS. A microtiter plate was filled with 120 µL of this suspension (50,000/mL) in each well.
Seperately, another microtiter plate was filled with 100 µL of growth medium in each well. Then, 50 µL of the test compound sol utions (1 mg/mL) were given to wells of the first column in two replicates (one compound per row). C ell s wi thout addi ti ves, Me O H, and MeOH: DMSO 9+1 were used as negative controls. Starting from the first column, 50 µL of the solutions were gradually transferred to the ne xt col umn, the conte nts thoroughl y mi xed, and 50 µ L transferred to the following column. This created a serial dilution of the test compounds r anging from 333 µg/mL to 1.9 ×10−3 µg/mL. The remai ni ng 50 µL after column twelve were discarded. From this microtiter plate, 60 µL of the sol utions from 111 µg/ mL to 1.9×10−3 µg/mL were given to the first plate containing 120 µL of the cel l suspens i ons (i.e. the hi ghest concentrati on 333 µg/mL was not used). T his resulted i n fi nal compound concent rati ons rangi ng from […]
After 5 days of incubation under the aforeme ntioned i ncubati on condi ti ons, the half maximum inhibitory concentrati ons (IC 50) were determined using a colorimetric tetrazolium dye MTT assay [S3].
For this, 20 µL of a 5 mg/mL solution of 3-( 4 ,5 -dimethyl-2-thi azo l yl)-2 ,5 -di phenyl -2H-tetrazolium bromide (MTT) w ere added to each well and incubated for two hours at 37 °C. Then, the microtiter plate was centrifuged (3,000 r p m, 5 mi n) and the supernat ant remo ved by ho l di ng the pl ate upsi de-do wn and gentle shaking. Afterwards, the wells were washed using 100 µL of phosph ate buffered saline (PBS).
The plate was again centrifuged and the supernatant removed as described before. Then, 100 µL of an isopropanol:HCl solution (1L i sopropanol+4 mL HCl 37 % w/v) were added to the wells. After i ncubati ng fo r 10 mi n at ambi ent te mperature, the a bso r pti o n of the well s at 595 nm was measured wi th an I nfi ni te ® 200 Pro microplate reader (TECAN, Männedorf, Schweiz).
The absorption values of the cells without additives were averaged and set to 100 % cell viability.
Then, t he me ans of absorption of the two compound replicates were set in relation to the blank media.
These percentage values were plotted a gainst the concentration range (37 µg/mL to 0.6×10 −3 µg/mL). […]

[1] = A431 human squamous carcinoma cells, A431 human squamous AC
[2] = A549 human lung carcinoma cells, A549 human lung carcinoma
[3] = MCF-7 human breast adenocarcinoma cells, MCF-7 human breast AC
[4] = PC-3 human prostate adenocarcinoma cells, PC-3 human prostate AC
[5] = SK-OV-3 human ovary adenocarcinoma cells, SK-OV-3 human ovary AC

Row | Compound | IC50 at 5 days [1] [µM] | IC50 at 5 days [2] [µM] | IC50 at 5 days [3] [µM] | IC50 at 5 days [4] [µM] | IC50 at 5 days [5] [µM] | IC50 (A431 human squamous AC) [µM] | IC50 (A549 human lung carcinoma) [µM] | IC50 (MCF-7 human breast AC) [µM] | IC50 (PC-3 human prostate AC) [µM] | IC50 (SK-OV-3 human ovary AC) [µM]
1 | Oc1cccc2c3c(ccc12)-c1ccc(O)c2c(O)ccc-3c12 [Compound 1, viridistratin A] | 8.7 | 20 | 9.7 | 23.7 | 56.7 | – | – | – | – | –
2 | COc1cccc2c3c(ccc12)-c1ccc(O)c2c(O)ccc-3c12 [Compound 2, viridistratin B] | 1.1 | 1.4 | 5.1 | 9.9 | 7.3 | – | – | – | – | –
3 | O=C1C[C@H]2C(=C3CCC(=O)c4c(O)ccc2c43)c2cccc(O)c21 [Compound 4, truncatone A] | – | – | – | – | – | 5.7 | 17 | 8.8 | 44 | 66
4 | O=C1CCC(=O)c2c1c(O)cc1c2-c2ccc(O)c3c(O)ccc-1c23 [Compound 5, truncatone C] | 16.3 | 27.1 | 7.8 | 25.6 | 33.1 | – | – | – | – | –

Source: article PMC7277860, “Viridistratins A−C, Antimicrobial and Cytotoxic Benzo[j]fluoranthenes from Stromata of Annulohypoxylon viridistratum (Hypoxylaceae, Ascomycota)” (Biomolecules, 2020)
